Converted amounts (≈) assume the structure as drawn. The source made the active and inactive calls. The rule behind the calls is not given here.
Key:
Staphylococcus aureus [1] = assay: Antibacterial activity against methicillin-resistant Staphylococcus aureus after overnight incubation by micro broth dilution analysis; type: functional
[2] = system: Staphylococcus epidermidis; assay: Antibacterial activity against methicillin-resistant Staphylococcus epidermidis after overnight incubation by micro broth dilution analysis; type: functional
[3] = system: Staphylococcus haemolyticus; assay: Antibacterial activity against methicillin-resistant Staphylococcus haemolyticus after overnight incubation by micro broth dilution analysis; type: functional
Staphylococcus aureus [4] = assay: Antibacterial activity against methicillin-resistant Staphylococcus aureus assessed as zone of inhibition at 50 ug/mL after 24 hrs by agar disc diffusion method; type: functional; settings: read-out: IZ
Staphylococcus aureus [5] = assay: Antibacterial activity against methicillin-resistant Staphylococcus aureus assessed as zone of inhibition at 200 ng/mL after 24 hrs by agar disc diffusion method; type: functional; settings: read-out: IZ
Staphylococcus aureus [6] = assay: Antibacterial activity against methicillin-resistant Staphylococcus aureus assessed as zone of inhibition at 400 ng/mL after 24 hrs by agar disc diffusion method; type: functional; settings: read-out: IZ
Staphylococcus aureus [7] = assay: Antibacterial activity against methicillin-resistant Staphylococcus aureus assessed as zone of inhibition at 800 ng/mL after 24 hrs by agar disc diffusion method; type: functional; settings: read-out: IZ
[8] = system: Staphylococcus epidermidis; assay: Antibacterial activity against methicillin-resistant Staphylococcus epidermidis assessed as zone of inhibition at 20 ug/mL after 24 hrs by agar disc diffusion method; type: functional; settings: read-out: IZ
[9] = system: Staphylococcus epidermidis; assay: Antibacterial activity against methicillin-resistant Staphylococcus epidermidis assessed as zone of inhibition at 200 ng/mL after 24 hrs by agar disc diffusion method; type: functional; settings: read-out: IZ
[10] = system: Staphylococcus epidermidis; assay: Antibacterial activity against methicillin-resistant Staphylococcus epidermidis assessed as zone of inhibition at 400 ng/mL after 24 hrs by agar disc diffusion method; type: functional; settings: read-out: IZ
[11] = system: Staphylococcus epidermidis; assay: Antibacterial activity against methicillin-resistant Staphylococcus epidermidis assessed as zone of inhibition at 800 ng/mL after 24 hrs by agar disc diffusion method; type: functional; settings: read-out: IZ
[12] = system: Staphylococcus haemolyticus; assay: Antibacterial activity against methicillin-resistant Staphylococcus haemolyticus assessed as zone of inhibition at 50 ug/mL after 24 hrs by agar disc diffusion method; type: functional; settings: read-out: IZ
Staphylococcus aureus [13] = assay: Induction of cellular content release in methicillin-resistant Staphylococcus aureus assessed as DNA content by measuring optical density at 260 nm at MIC after 240 mins by UV-visible spectrophotometric analysis; type: functional
Staphylococcus aureus [14] = assay: Antibiofilm activity against methicillin-resistant Staphylococcus aureus at MIC after 24 hrs by crystal violet staining-based UV-visible spectrophotometric analysis; type: functional, organism-based
Staphylococcus aureus [15] = assay: Antibiofilm activity against methicillin-resistant Staphylococcus aureus planktonic biofilm assessed as optical density at 492 nm at MIC after 24 hrs by crystal violet staining-based UV-visible spectrophotometric analysis; type: functional
Staphylococcus aureus [16] = assay: Antibacterial activity against methicillin-resistant Staphylococcus aureus assessed as zone of inhibition at 30 ug/mL after 24 hrs by agar disc diffusion method; type: functional; settings: read-out: IZ
[17] = system: Staphylococcus epidermidis; assay: Antibacterial activity against methicillin-resistant Staphylococcus epidermidis assessed as zone of inhibition at 30 ug/mL after 24 hrs by agar disc diffusion method; type: functional; settings: read-out: IZ
[18] = system: Staphylococcus haemolyticus; assay: Antibacterial activity against methicillin-resistant Staphylococcus haemolyticus assessed as zone of inhibition at 30 ug/mL after 24 hrs by agar disc diffusion method; type: functional; settings: read-out: IZ
Staphylococcus aureus [19] = assay: Antibiofilm activity against methicillin-resistant Staphylococcus aureus at 2 times MIC after 24 hrs by crystal violet staining-based UV-visible spectrophotometric analysis; type: functional, organism-based
[20] = system: Staphylococcus haemolyticus; assay: Antibacterial activity against methicillin-resistant Staphylococcus haemolyticus assessed as zone of inhibition at 200 ng/mL after 24 hrs by agar disc diffusion method; type: functional; settings: read-out: IZ
[21] = system: Staphylococcus haemolyticus; assay: Antibacterial activity against methicillin-resistant Staphylococcus haemolyticus assessed as zone of inhibition at 400 ng/mL after 24 hrs by agar disc diffusion method; type: functional; settings: read-out: IZ
[22] = system: Staphylococcus haemolyticus; assay: Antibacterial activity against methicillin-resistant Staphylococcus haemolyticus assessed as zone of inhibition at 800 ng/mL after 24 hrs by agar disc diffusion method; type: functional; settings: read-out: IZ
Staphylococcus aureus [23] = assay: Antibiofilm activity against methicillin-resistant Staphylococcus aureus assessed as optical density at 492 nm at 1 to 2 times MIC after 24 hrs by crystal violet staining-based UV-visible spectrophotometric analysis; type: functional
Staphylococcus aureus [24] = assay: Induction of pore formation in methicillin-resistant Staphylococcus aureus cell membrane assessed as increase in ferricyanide mediated cellular leakage after 2 hrs by DCPIP dye-based cyclic voltammetric analysis; type: functional, organism-based
Staphylococcus aureus [25] = assay: Induction of pore formation in methicillin-resistant Staphylococcus aureus cell membrane assessed as increase in ferricyanide mediated potassium efflux after 2 hrs by DCPIP dye-based cyclic voltammetric analysis; type: functional, organism-based
Staphylococcus aureus [26] = assay: Induction of pore formation in methicillin-resistant Staphylococcus aureus cell membrane assessed as increase in ferricyanide mediated DNA damage after 2 hrs by DCPIP dye-based cyclic voltammetric analysis; type: functional, organism-based

Compound | MIC99 (Staphylococcus aureus [1]) | MIC99 [2] | MIC99 [3] | zone of inhibition at 50 µg/mL (Staphylococcus aureus [4]) | zone of inhibition at 0.2 µg/mL (Staphylococcus aureus [5]) | zone of inhibition at 0.4 µg/mL (Staphylococcus aureus [6]) | zone of inhibition at 0.8 µg/mL (Staphylococcus aureus [7]) | zone of inhibition at 20 µg/mL [8] | zone of inhibition at 0.2 µg/mL [9] | zone of inhibition at 0.4 µg/mL [10] | zone of inhibition at 0.8 µg/mL [11] | zone of inhibition at 50 µg/mL [12] | OD (Staphylococcus aureus [13]) | Activity (Staphylococcus aureus [14]) | OD (Staphylococcus aureus [15]) | zone of inhibition at 30 µg/mL (Staphylococcus aureus [16]) | zone of inhibition at 30 µg/mL [17] | zone of inhibition at 30 µg/mL [18] | Activity (Staphylococcus aureus [19]) | zone of inhibition at 0.2 µg/mL [20] | also measured
O=S(=O)(F)/C=C/c1ccc(C(F)(F)F)nc1 | 0.811 µg/mL (≈ 3.18 µM) | 0.838 µg/mL (≈ 3.28 µM) | 40 µg/mL (≈ 157 µM) | 12.2 mm | 5.1 mm | 7.2 mm | 11.2 mm | 8.5 mm | 4.2 mm | 5.1 mm | 7.2 mm | 5.5 mm | 1.67 | Active | 0.815 | – | – | – | – | – | –
NC[C@H]1O[C@H](O[C@H]2[C@H](O)[C@@H](O[C@H]3O[C@H](CO)[C@@H](O)[C@H](N)[C@H]3O)[C@H](N)C[C@@H]2N)[C@H](O)[C@@H](O)[C@@H]1O [KANAMYCIN] | 9.12 µg/mL (≈ 18.8 µM) | 30.1 µg/mL (≈ 62.2 µM) | 21.2 µg/mL (≈ 43.7 µM) | – | – | – | – | – | – | – | – | – | – | – | 0.715 | 12 mm | 8.3 mm | 4.81 mm | Active | – | –
CCn1cc(C(=O)O)c(=O)c2cc(F)c(N3CCNCC3)cc21 [NORFLOXACIN] | 0.61 µg/mL (≈ 1.91 µM) | 0.73 µg/mL (≈ 2.29 µM) | 0.58 µg/mL (≈ 1.82 µM) | – | – | – | – | – | – | – | – | – | – | – | 0.695 | 10 mm | 9.07 mm | 12.7 mm | Active | – | –
O=S(=O)(F)/C=C/c1ccc(Cl)cc1 | 0.818 µg/mL (≈ 3.71 µM) | 0.83 µg/mL (≈ 3.76 µM) | 0.846 µg/mL (≈ 3.83 µM) | 8.2 mm | 6.3 mm | 8.2 mm | 10 mm | 10.3 mm | 5.2 mm | 7.2 mm | 8.4 mm | 7.2 mm | 1.28 | Active | 0.66 | – | – | – | – | 4.1 mm | zone of inhibition at 0.4 µg/mL [21]: 5.1 mm; zone of inhibition at 0.8 µg/mL [22]: 71 mm; OD (Staphylococcus aureus [23]): 0.66; Activity (Staphylococcus aureus [24]): Active; Activity (Staphylococcus aureus [25]): Active; Activity (Staphylococcus aureus [26]): Active
N#Cc1ccc(/C=C/S(=O)(=O)F)cc1 | 0.84 µg/mL (≈ 3.98 µM) | 0.831 µg/mL (≈ 3.93 µM) | 0.847 µg/mL (≈ 4.01 µM) | 11.4 mm | 6.1 mm | 7.3 mm | 8.5 mm | 7.5 mm | 5.2 mm | 6.3 mm | 7.6 mm | 7.2 mm | 1.42 | Active | 0.685 | – | – | – | – | 4.2 mm | zone of inhibition at 0.4 µg/mL [21]: 5.1 mm; zone of inhibition at 0.8 µg/mL [22]: 6.2 mm; OD (Staphylococcus aureus [23]): 0.68; Activity (Staphylococcus aureus [24]): Active; Activity (Staphylococcus aureus [25]): Active; Activity (Staphylococcus aureus [26]): Active
